We go through four compounds from US20200222406A1, “METHODS FOR TREATING OR PREVENTING CARDIOVASCULAR DISORDERS AND LOWERING RISK OF CARDIOVASCULAR EVENTS” (DALCOR PHARMA UK LTD., LEATHERHEAD, ZUG BRANCH, priority 2017, published 2020).

Data set [1] has as its target T1, CETP (Homo sapiens, UniProt P11597).
T1 construct: endogenous in cells; host or cells: patients in Phase III clinical trials (plasma CETP)
T1 sequence (P11597 18-493): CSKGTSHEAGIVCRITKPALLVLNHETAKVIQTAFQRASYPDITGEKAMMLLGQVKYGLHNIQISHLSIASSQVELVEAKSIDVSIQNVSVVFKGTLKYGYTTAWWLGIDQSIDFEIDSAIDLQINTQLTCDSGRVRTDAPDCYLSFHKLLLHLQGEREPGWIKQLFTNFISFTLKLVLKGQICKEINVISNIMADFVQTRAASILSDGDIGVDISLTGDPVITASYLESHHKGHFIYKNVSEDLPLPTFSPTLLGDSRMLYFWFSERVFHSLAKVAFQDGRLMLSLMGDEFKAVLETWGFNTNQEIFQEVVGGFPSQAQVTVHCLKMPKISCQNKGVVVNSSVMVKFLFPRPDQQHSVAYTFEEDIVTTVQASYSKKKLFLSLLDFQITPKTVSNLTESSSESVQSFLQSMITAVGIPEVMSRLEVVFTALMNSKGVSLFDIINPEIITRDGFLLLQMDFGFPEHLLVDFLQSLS
To be noted: Phase III, with atorvastatin concomitantly vs atorvastatin alone, trial terminated; cited from earlier work.

In data set [2] the test system is endothelial-dependent vasodilatation. Briefly: ACh-induced endothelial-dependent vasodilatation under selective pharmacological blockade. Also on record: species or system mice. An excerpt:
(§1) Selective pharmacological blockade of the signaling pathways responsible for endothelial-dependent vasodilatation (Vanhoutte et al., Acta Physiol (Oxf). (2017) 219:22-96) was then used to identify the mechanism responsible for the improvement observed in Adcy9^Gt/Gt mice.

In data set [3] the test system is flow-mediated vasodilatation. Briefly: Flow-mediated vasodilatation under pharmacological blockade. To be noted: Adcy9^Gt/Gt mice.
Source text: as §1

Data set [4] addresses T1, CETP. To be noted: cited from earlier work.
The mark [5] stands for this setting: 600 mg dalcetrapib vs placebo, patients with recent ACS.

`CCOC(=O)N1c2ccc(C(F)(F)F)cc2[C@@H](N(Cc2cc(C(F)(F)F)cc(C(F)(F)F)c2)C(=O)OC)C[C@H]1CC` [torcetrapib]: the mortality result at CETP [1] is “incidence of mortality”.

Consider `NC(=NCCC[C@H](N)C(=O)O)N[N+](=O)[O-]` [L-NNA], for which the ACh-induced vasodilatation entry in data set [2] (Adcy9^Gt/Gt mice) and in data set [2] (WT mice) was “inhibited significantly” throughout. For the same compound, the flow-mediated vasodilatation result in data set [3] was “numerically reduced”.

With `CCC(CC)CC1(C(=O)Nc2ccccc2SC(=O)C(C)C)CCCCC1` [dalcetrapib], on CETP [4] (setting [5]), the HDL-c entry was “marked increase” and the cardiovascular events result is reported as “did not show a significant reduction”. Also, the “efficacy relative to statins alone” value on CETP [4] (Phase III, trial halted) is recorded as “lack of efficacy”.

Consider `Cc1ccc(Cl)c(Nc2ccccc2C(=O)O)c1Cl` [meclofenamate], for which the ACh-induced vasodilatation result in data set [2] (Adcy9^Gt/Gt mice) is reported as “inhibited”.
